The record followed here is patent US7030138B2, “Benzamidine derivatives” (Sankyo Company, Limited, priority 2001, dated 2006).

The assay deals with T1, human factor-Xa (Homo sapiens, UniProt P00742).
T1 construct: purchased Cosmobio Co., Ltd
Put plainly: Determination of anti-factor Xa activity (S-2222 coloring substrate, absorbance at 405 nm). In kind it is biochemical. The following applies: human factor-Xa 0.25 unit/ml, S-2222 0.4 mM, Tris buffer pH 8.4, room temperature, 5 minutes; read-out: Inhibitory Action against Factor Xa Activity (IC50 (nM)). The method, then: Determination of Anti-factor Xa Activity
Anti-factor Xa activity was determined according to methods described by Hara et al. [Thrombo. Haemost., 71, 314 (1994)], which were slightly modified. S-2222, a coloring substrate (0.4 mM, Daiichi Pure Chemicals Co., Ltd.) and the test compounds were mixed in Tris hydrochloride buffered solution (50 mM, pH: 8.4) containing NaCl (0.9%). To this solution, human factor-Xa (0.25 unit/ml, Cosmobio Co., Ltd.) was added and the reaction was started. In the control group, distilled water was added to the Tris-buffered solution instead of the test compound. The reaction mixture (in total: 0.1 ml) was incubated at room temperature for 5 minutes. Optical absorbance of the reaction mixture was continuously determined at 405 nm with a 96-well microplate reader (Model 550, Biorad) and increase in the absorbance for 5 minutes was calculated as an indicator of factor Xa activity. To assess anti-factor Xa activities of the test compounds, concentrations of the test compounds to inhibit the factor Xa activity by 50% (IC50) were calculated.

Structures can show the parent of a compound that is named as a salt.

T1 sequence (P00742 235-488 limits assumed): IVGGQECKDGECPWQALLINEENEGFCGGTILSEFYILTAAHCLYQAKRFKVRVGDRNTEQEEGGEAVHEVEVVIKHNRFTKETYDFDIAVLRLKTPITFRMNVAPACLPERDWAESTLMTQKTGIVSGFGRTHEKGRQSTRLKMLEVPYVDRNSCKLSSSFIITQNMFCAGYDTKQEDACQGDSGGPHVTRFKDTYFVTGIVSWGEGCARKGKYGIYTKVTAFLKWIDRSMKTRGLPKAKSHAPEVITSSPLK
T1 sequence (P00742 41-179 partner limits assumed): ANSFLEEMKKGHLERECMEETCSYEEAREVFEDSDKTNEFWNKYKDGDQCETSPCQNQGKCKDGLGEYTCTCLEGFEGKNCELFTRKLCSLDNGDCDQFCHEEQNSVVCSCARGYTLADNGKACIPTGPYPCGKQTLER

In the case of `N=C(N)c1cccc(/C=C/CN(c2ccc(OC3CCN(C4=NCCCC4)CC3)c(C(F)(F)F)c2)S(=O)(=O)CC(=O)O)c1` [Example 80, N-[3-(3-Amidinophenyl)-2-(E)-propenyl]-N-[4-[1-(2,3,4,5-tetrahydropyridin-6-yl)piperidin-4-yloxy]-3-trifluoromethylphenyl]sulfamoylacetic acid dihydrochloride], the IC50 is 11 nM.

Regarding `N=C(N)c1cccc(/C=C/CN(c2ccc(OC3CCN(C(=N)c4ccccc4)CC3)c(Cl)c2)S(=O)(=O)CC(=O)O)c1` [Example 52, N-[3-(3-Amidinophenyl)-2-(E)-propenyl]-N-[4-(1-iminophenylmethylpiperidin-4-yloxy)-3-chlorophenyl]sulfamoylacetic acid dihydrochloride], the IC50 was 7.8 nM.

Take `CCOC(=O)CS(=O)(=O)N(C/C=C/c1cccc(C(=N)N)c1)c1ccc(OC2CCN(C3=NCCSC3)CC2)c(Cl)c1` [Example 83, Ethyl N-[3-(3-amidinophenyl)-2-(E)-propenyl]-N-[3-chloro-4-[1-(5,6-dihydro-2H-[1,4]thiazin-3-yl)piperidin-4-yloxy]phenyl]sulfamoylacetate dihydrochloride]: the IC50 is 13 nM.

Turning to `CCOC(=O)CS(=O)(=O)N(C/C=C/c1cccc(C(=N)N)c1)c1ccc(OC2CCN(C3=NCCCC3)CC2)c(C)c1` [Example 67, Ethyl N-[3-(3-amidinophenyl)-2-(E)-propenyl]-N-[3-methyl-4-[1-(2,3,4,5-tetrahydropyridin-6-yl)piperidin-4-yloxy]phenyl]sulfamoylacetate dihydrochloride], the IC50 came out at 15 nM.

As for `CCN1CCC(Oc2ccc(N(C/C=C/c3cccc(C(=N)N)c3)S(=O)(=O)CC(=O)O)cc2Cl)CC1` [Example 4, N-[3-(3-Amidinophenyl)-2-(E)-propenyl]-N-[3-chloro-4-(1-ethylpiperidin-4-yloxy)phenyl]sulfamoylacetic acid dihydrochloride], the IC50 came out at 10 nM.

For `CCOC(=O)CS(=O)(=O)N(C/C=C/c1cccc(C(=N)N)c1)c1ccc(OC2CCN(C)CC2)c(C(F)(F)F)c1` [Example 45, Ethyl N-[3-(3-amidinophenyl)-2-(E)-propenyl]-N-[4-(1-methylpiperidin-4-yloxy)-3-trifluoromethylphenyl]sulfamoylacetate dihydrochloride], the IC50 stood at 7.9 nM.

As for `N=C(N)c1cccc(/C=C/CN(c2ccc(OC3CCN(C4CCCC4)CC3)c(Cl)c2)S(=O)(=O)CC(=O)O)c1` [Example 38, N-[3-(3-Amidinophenyl)-2-(E)-propenyl]-N-[3-chloro-4-(1-cyclopentylpiperidin-4-yloxy)phenyl]sulfamoylacetic acid dihydrochloride], the IC50 was determined as 12 nM.

As for `N=C(N)c1cccc(/C=C/CN(c2ccc(OC3CCN(Cc4ccccc4)CC3)c(Cl)c2)S(=O)(=O)CC(=O)O)c1` [Example 10, N-[3-(3-Amidinophenyl)-2-(E)-propenyl]-N-[4-(1-benzylpiperidin-4-yloxy)-3-chlorophenyl]sulfamoylacetic acid dihydrochloride], the IC50 came to 15 nM.

For `CCN=CN1CCC(Oc2ccc(N(CC=Cc3cccc(C(=N)N)c3)S(=O)(=O)CC(=O)OCC)cc2Cl)CC1` [Example 86, Ethyl N-[3-(3-amidinophenyl)-2-(E)-propenyl]-N-[3-chloro-4-[1-(N-ethylformimidoyl)piperidin-4-yloxy]phenyl]sulfamoylacetate dihydrochloride], the half-inhibitory concentration (IC50) was 15 nM.

Take `N=C(N)c1cccc(/C=C/CN(c2ccc(OC3CCN(C4=NCCCC4)CC3)c(Cl)c2)S(=O)(=O)CC(=O)O)c1` [Example 56, N-[3-(3-Amidinophenyl)-2-(E)-propenyl]-N-[3-chloro-4-[1-(2,3,4,5-tetrahydropyridin-6-yl)piperidin-4-yloxy]phenyl]sulfamoylacetic acid dihydrochloride]: the IC50 was 10 nM.

Regarding `CCOC(=O)CS(=O)(=O)N(C/C=C/c1cccc(C(=N)N)c1)c1ccc(OC2CCN(C3=NCCCC3)CC2)c(C(F)(F)F)c1` [Example 79, Ethyl N-[3-(3-amidinophenyl)-2-(E)-propenyl]-N-[4-[1-(2,3,4,5-tetrahydropyridin-6-yl)piperidin-4-yloxy]-3-trifluoromethylphenyl]sulfamoylacetate dihydrochloride], the IC50 is 15 nM.

On to `N=C(N)c1cccc(/C=C/CN(c2ccc(OC3CCN(CCc4ccccn4)CC3)c(Cl)c2)S(=O)(=O)CC(=O)O)c1` [Example 36, N-[3-(3-Amidinophenyl)-2-(E)-propenyl]-N-[3-chloro-4-[1-[2-(2-pyridyl)ethyl]piperidin-4-yloxy]phenyl]sulfamoylacetic acid trihydrochloride], for which the IC50 was found to be 13 nM.

Consider `CCOC(=O)CS(=O)(=O)N(C/C=C/c1cccc(C(=N)N)c1)c1ccc(OC2CCN(C(=N)c3ccccc3)CC2)c(Cl)c1` [Example 51, Ethyl N-[3-(3-amidinophenyl)-2-(E)-propenyl]-N-[4-(1-iminophenylmethylpiperidin-4-yloxy)-3-chlorophenyl]sulfamoylacetate dihydrochloride], for which the IC50 was 6.9 nM.

As for `Cc1cc(N(C/C=C/c2cccc(C(=N)N)c2)S(=O)(=O)CC(=O)O)ccc1OC1CCN(C2=NCCCC2)CC1` [Example 68, N-[3-(3-Amidinophenyl)-2-(E)-propenyl]-N-[3-methyl-4-(2,3,4,5-tetrahydropyridin-6-yl)piperidin-4-yloxy]phenyl]sulfamoylacetic acid dihydrochloride], the IC50 is 15 nM.

For `CN1CCC(Oc2ccc(N(C/C=C/c3cccc(C(=N)N)c3)S(=O)(=O)CC(=O)O)cc2C(F)(F)F)CC1` [Example 46, N-[3-(3-Amidinophenyl)-2-(E)-propenyl]-N-[4–1-methylpiperidin-4-yloxy)-3-trifluoromethylphenyl]sulfamoylacetic acid dihydrochloride], the IC50 turned out to be 11 nM.

Take `N=C(N)c1cccc(/C=C/CN(c2ccc(OC3CCN(CCc4ccccc4)CC3)c(Cl)c2)S(=O)(=O)CC(=O)O)c1` [Example 12, N-[3-(3-Amidinophenyl)-2-(E)-propenyl]-N-[3-chloro-4-(1-phenethylpiperidin-4-yloxy)phenyl]sulfamoylacetic acid dihydrochloride]: the IC50 is 13 nM.
